{"source": "paper PMC7958448", "about": "“Bepridil is potent against SARS-CoV-2 in vitro” (Proceedings of the National Academy of Sciences of the …, 2021)", "origin": "cited, not measured here", "test_system": "SARS-CoV-2 in Vero E6 cells", "settings": "cited from earlier work"}
{"smiles": "CCC(CC)COC(=O)[C@H](C)N[P@](=O)(OC[C@H]1O[C@@](C#N)(c2ccc3c(N)ncnn23)[C@H](O)[C@@H]1O)Oc1ccccc1", "note": "[remdesivir]", "values": [{"measurement": "EC50", "value": 770, "unit": "nM"}]}
